According to BindingDB's records for doi:10.1021/cb400100g (University of Massachusetts Medical School, 2013):

These compounds were tested against Genome polyprotein (Hepatitis C virus genotype 1a (isolate H77), UniProt P27958) (assay: Enzyme Inhibition Assay).
Chain of Genome polyprotein (P27958 1027-1657 limits assumed): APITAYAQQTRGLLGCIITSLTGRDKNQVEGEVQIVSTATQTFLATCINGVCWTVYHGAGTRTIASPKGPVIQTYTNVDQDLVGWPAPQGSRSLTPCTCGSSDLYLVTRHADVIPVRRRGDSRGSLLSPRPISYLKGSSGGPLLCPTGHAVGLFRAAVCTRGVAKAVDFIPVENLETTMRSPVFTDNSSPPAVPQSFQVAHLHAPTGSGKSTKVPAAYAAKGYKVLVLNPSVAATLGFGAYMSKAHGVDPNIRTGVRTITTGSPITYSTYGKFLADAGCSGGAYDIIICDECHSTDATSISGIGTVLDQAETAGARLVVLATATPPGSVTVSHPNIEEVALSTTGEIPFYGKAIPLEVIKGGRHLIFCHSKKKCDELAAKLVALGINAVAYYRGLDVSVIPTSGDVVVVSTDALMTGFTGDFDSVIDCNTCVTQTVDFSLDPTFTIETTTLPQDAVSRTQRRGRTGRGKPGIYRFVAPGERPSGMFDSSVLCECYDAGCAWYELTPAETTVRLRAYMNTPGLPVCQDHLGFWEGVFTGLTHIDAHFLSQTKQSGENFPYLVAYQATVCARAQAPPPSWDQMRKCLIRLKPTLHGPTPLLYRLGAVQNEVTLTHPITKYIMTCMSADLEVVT
Chain of Genome polyprotein (P27958 1658-1711 limits assumed): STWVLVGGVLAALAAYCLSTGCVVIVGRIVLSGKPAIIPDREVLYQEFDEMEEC
Description: NS3/4A protease was preincubated with increasing concentration of drugs in protease reaction buffer for 1 hour. Inhibition assays were performed in a reaction volume of 60μL. The reaction was initiated by the rapid injection of 5μL of HCV NS3/4A protease substrate to a final concentration of 200nM.
For `C=C[C@@H]1C[C@]1(NC(=O)[C@@H]1CC2CN1C(=O)[C@H](C(C)(C)C)NC(=O)O[C@@H]1C[C@H]1CCCCCc1nc3ccc(OC)cc3nc1O2)C(=O)NS(=O)(=O)C1CC1` (stereo partly drawn) [MK-5172], the Ki was 60 pM. In the case of `C=C[C@@H]1C[C@]1(NC(=O)C1C[C@@H]2CN1C(=O)[C@H](C(C)(C)C)NC(=O)OCC(C)(C)CCCCc1cccc3c1CN(C3)C(=O)O2)C(=O)NS(=O)(=O)C1CC1` (stereo partly drawn) [Dan-mcP2P4], the Ki is reported as 220 pM. `CC[C@@H]1C[C@]1(NC(=O)[C@@H]1C[C@@H]2CN1C(=O)[C@H](C(C)(C)C)NC(=O)OCC(C)(C)CCCCc1cccc3c1CN(C3)C(=O)O2)C(=O)NS(=O)(=O)C1CC1` [Vaniprevir] gave a Ki of 460 pM.
